The values that follow come from patent US11168055B2, “Endocyclic thiamidinoamide-arylamide compound and use thereof for treating hepatitis B” (SHANGHAI LONGWOOD BIOPHARMACEUTICALS CO., LTD., priority 2017, dated 2021).

Data set [1] has as its system HBV DNA in the supernatant of HepG2.2.15. The data set is described as follows: Determination of anti-HBV activity in HepG2.2.15 cell (HBV DNA in supernatant by qPCR). The class given is cell-based, Hepatitis B virus. The following applies: HepG2.2.15 cells, HBV DNA; read-out: Experiment 2 Cell experiment EC50. (In general: Quantitative PCR measures a nucleic acid by following its amplification.)

The subject of the next data set is HepG2 cells. The data set is described as follows: Determination of cytotoxicity (HepG2 cells, resazurin assay, 4 days). The class given is cell-based. To be noted: read-out: Experiment 3 Cytotoxicity CC50. The protocol:
Experiment 3: Determination of Cytotoxicity
The cytotoxicity of the test compound was tested using HepG2 cells. The cells were incubated for 4 days in the presence of the test compound. Cell activity was assessed using the resazurin assay.

Turning to `CC(C)[C@H]1C=Cc2c(cn(C)c2C(=O)Nc2cc(F)c(F)c(F)c2)S(=N)(=O)N1` (single isomer, unassigned) [Compound 10c2], the EC50 in data set [1] was 0.1 to 100 nM. Besides, in the data set with HepG2 cells, the CC50 was more than 30000 nM.
The like results for `CC(C)[C@H]1C=Cc2c(cn(C)c2C(=O)Nc2ccc(F)c(F)c2)S(=N)(=O)N1` (single isomer, unassigned) [Compound 10a2] were, in that order, 0.1 to 100 nM and more than 30000 nM.
The like results for `CC(O)[C@H]1CCc2c(cn(C)c2C(=O)Nc2ccc(F)c(F)c2)S(=N)(=O)N1` (single isomer, unassigned) [Compound 40a2] were, in that order, 100 to 1000 nM and more than 30000 nM.
Taken in the same sequence, the figures for `CN=S1(=O)N[C@@H](C(C)C)C=Cc2c1cn(C)c2C(=O)Nc1ccc(F)c(F)c1` (single isomer, unassigned) [Compound 50a2] were 0.1 to 100 nM and more than 30000 nM.
As to `CC(C)[C@H]1CCc2c(cn(C)c2C(=O)Nc2ccc(F)c(F)c2)S(=N)(=O)N1` (single isomer, unassigned) [Compound 20a2], in data set [1], the EC50 fell in the range of 0.1 to 100 nM. For the same molecule, the CC50 in the data set with HepG2 cells was more than 30000 nM.
The like results for `CC(C)C[C@H]1C=Cc2c(cn(C)c2C(=O)Nc2ccc(F)c(C#N)c2)S(=O)(=NC(C)C)N1` (single isomer, unassigned) [Compound 50u2] were, in that order, 0.1 to 100 nM and more than 30000 nM.
On to `CC(C)[C@H]1C=Cc2c(cn(C)c2C(=O)Nc2cc(F)nc(C#N)c2)S(=N)(=O)N1` (single isomer, unassigned) [Compound 10e2], for which the EC50 in data set [1] fell in the range of 0.1 to 100 nM. Besides, in the data set with HepG2 cells, the 50% cytotoxic concentration (CC50) was more than 30000 nM.
Regarding `CC[C@H](C)[C@H]1C=Cc2c(cn(C)c2C(=O)Nc2ccc(F)c(C#N)c2)S(=N)(=O)N1` (single isomer, unassigned) [Compound 10o2], the EC50 in data set [1] lay in the range of 0.1 to 100 nM. The CC50 in the data set with HepG2 cells was more than 30000 nM.
Taken in the same sequence, the figures for `C[C@@H](OCc1ccccc1)[C@H]1C=Cc2c(cn(C)c2C(=O)Nc2ccc(F)c(C#N)c2)S(=N)(=O)N1` (single isomer, unassigned) [Compound 10ccc2] were 0.1 to 100 nM and more than 30000 nM.
The like results for `CC(O)[C@H]1CCc2c(cn(C)c2C(=O)Nc2ccc(F)c(C#N)c2)S(=N)(=O)N1` (single isomer, unassigned) [Compound 40b2] were, in that order, 100 to 1000 nM and more than 30000 nM.
The like results for `CC(C)C[C@H]1CCc2c(cn(C)c2C(=O)Nc2ccc(F)c(C#N)c2)S(=O)(=NC2CC2)N1` (single isomer, unassigned) [Compound 60y2] were, in that order, 0.1 to 100 nM and more than 30000 nM.
`CC(C)[C@H]1CCc2c(cn(C)c2C(=O)Nc2cc(F)c(F)c(F)c2)S(=N)(=O)N1` (single isomer, unassigned) [Compound 20c2]: the EC50 in data set [1] was 0.1 to 100 nM. The CC50 in the data set on HepG2 cells was more than 30000 nM.
The like results for `CC(C)C[C@H]1CCc2c(nn(C)c2C(=O)Nc2ccc(F)c(C#N)c2)S(=N)(=O)N1` (single isomer, unassigned) [Compound 80b2] were, in that order, 0.1 to 100 nM and more than 30000 nM.
Turning to `CCN=S1(=O)N[C@@H](CC(C)C)CCc2c1cn(C)c2C(=O)Nc1ccc(F)c(C#N)c1` (single isomer, unassigned) [Compound 60w2], the EC50 in data set [1] lay in the range of 0.1 to 100 nM. The CC50 in the data set with HepG2 cells was more than 30000 nM.
The like results for `CC(C)[C@@H]1C=Cc2c(cn(C)c2C(=O)Nc2ccc(F)c(C#N)c2)S(=N)(=O)N1` (single isomer, unassigned) [Compound 10h2] were, in that order, more than 1000 nM and more than 30000 nM.
The like results for `CC(C)[C@H]1CCc2c(nn(C)c2C(=O)Nc2ccc(F)c(C#N)c2)S(=N)(=O)N1` (single isomer, unassigned) [Compound 80a2] were, in that order, 0.1 to 100 nM and more than 30000 nM.
Taken in the same sequence, the figures for `CC(C)[C@@H]1C=Cc2c(cn(C)c2C(=O)Nc2ccc(F)c(F)c2)S(=N)(=O)N1` (single isomer, unassigned) [Compound 10g2] were 0.1 to 100 nM and more than 30000 nM.
For the molecule `CCN=S1(=O)N[C@@H](CC(C)C)C=Cc2c1cn(C)c2C(=O)Nc1ccc(F)c(C#N)c1` (single isomer, unassigned) [Compound 50t2], in data set [1], the EC50 lay within 0.1 to 100 nM. The CC50 in the data set on HepG2 cells was more than 30000 nM.
The like results for `CC(O)[C@H]1C=Cc2c(cn(C)c2C(=O)Nc2cc(F)c(F)c(F)c2)S(=N)(=O)N1` (single isomer, unassigned) [Compound 30c2] were, in that order, 100 to 1000 nM and more than 30000 nM.
Taken in the same sequence, the figures for `CC(C)C[C@H]1CCc2c(cn(C)c2C(=O)Nc2ccc(F)c(C#N)c2)S(=O)(=NC(C)C)N1` (single isomer, unassigned) [Compound 60x2] were 0.1 to 100 nM and more than 30000 nM.

A word on the EC50: it is the concentration that produces a half-maximal response. As a reminder, the CC50 is the concentration giving 50% cytotoxicity.
